Tested on: Streptococcus pyogenes (ATCC# 97-03 14289)
Experiment: Anti-microbial screen (growth inhibition, OD 570 nm)
Assay type: cell-based
Settings: ATCC97, compounds at 170 μg/ml, Todd Hewitt Broth, read at 4 hrs
Procedure: Streptococcus pyogenes (ATCC# 97-03 14289) were grown in Todd Hewitt Broth (THB) (Difco Laboratories #0492-17-6) overnight until they reached an optical density of (OD=0.636@ 570 nm) by reading 0.1 ml in a 96 well microtiter plate in a Molecular Devices Thermomax. This preparation was kept frozen as stocks in 30% v/v glycerol in 1.5 ml aliquots at −70 C° until used. Prior to screening, 1.5 ml aliquots were thawed and diluted into 50 ml THB. 200 μl of this dilution was added to 92 wells of microtiter plate. To three wells THB (200 μl) was added to serve as a blank and a sterility control. Test compounds in DMSO and appropriate concentrations of DMSO were added to Growth/Solvent Controls at 0 time. Plates were read at 0 time at 570 nm in the Molecular Devices plate reader to obtain compounds correction factors for insoluble or colored compounds. Plates were read again at 4 hrs.
Compounds were assayed at a concentration of 170 μg/ml. Percent inhibition for each compound was calculated using the following formulae:
Color correct=(O.D. 0 hr−Blank 0 hr)−(Solvent Control 0 hr−Blank 0 hr)
% Inhibition=100−(O.D. test compound 4 hr−Blank 4 hr−color correct) divided by (O.D. growth/solvent control 4 hr−Blank 4 hr)

SMILES	inhibition at 170 µg/mL
CCN1CCCC1CNC(=O)c1ccc2c(c1)nc1n2CC(=O)Nc2ccc(NCCN3CCOCC3)cc2-1 (stereo not shown) [6000#00002]	96.3%
CCN1CCCC1CNC(=O)c1ccc2c(c1)nc1n2CC(=O)Nc2ccc(NCCN(C)C)cc2-1 (stereo not shown) [6000#00007]	95.2%
CCN1CCCC1CNC(=O)c1ccc2c(c1)nc1n2CC(=O)Nc2ccc(NCCCN3CCOCC3)cc2-1 (stereo not shown) [6000#00010]	95.7%
CCN1CCCC1CNC(=O)c1ccc2c(c1)nc1n2CC(=O)Nc2ccc(N(C)CCN(C)C)cc2-1 (stereo not shown) [6000#00015]	96.3%
O=C1Cn2c(nc3ccc(Cl)cc32)-c2cc(NC3CCCCCC3)ccc2N1 [6000#04048]	95%
CC1CC(Nc2ccc3c(c2)-c2nc4ccc(Cl)cc4n2CC(=O)N3)CC(C)(C)C1 (stereo not shown) [6000#04080]	95.3%
CC1CCCCN1CCCNc1ccc2c(c1)-c1nc3ccc(Cl)cc3n1C(C)C(=O)N2 (stereo not shown) [6000#08102]	95.1%
CN(CCc1ccccc1)c1ccc2c(c1)-c1nc3cc(C(=O)NC4CC(C)(C)NC(C)(C)C4)ccc3n1[C@@H](CCC(N)=O)C(=O)N2 [6000#17560]	98.6%
CC1(C)CC(NC(=O)c2ccc3c(c2)nc2n3[C@@H](CCC(N)=O)C(=O)Nc3ccc(NCc4cccc(C(F)(F)F)c4)cc3-2)CC(C)(C)N1 [6000#17584]	97.2%
CN(C)CCN(C)c1ccc2c(c1)-c1nc3ccccc3n1[C@H](Cc1ccccc1)C(=O)N2 [6000#36335]	100%
CN(C)CCN(C)c1ccc2c(c1)-c1nc3ccc(Cl)cc3n1[C@H](Cc1ccccc1)C(=O)N2 [6000#36655]	96.8%
CN(C)CCCNc1ccc2c(c1)-c1nc3ccc(Cl)cc3n1[C@H](Cc1ccccc1)C(=O)N2 [6000#36687]	96.1%
CN(C)CCCN(C)c1ccc2c(c1)-c1nc3cc(C(=O)N4CCC(C(N)=O)CC4)ccc3n1[C@@H](CC1CCCCC1)C(=O)N2 [6000#38375]	95.1%
COCCN(CCOC)C(=O)c1ccc2c(c1)nc1n2[C@@H](CC2CCCCC2)C(=O)Nc2ccc(N(C)CCN(C)C)cc2-1 [6000#38735]	96.7%
CSCCCNC(=O)c1ccc2c(c1)nc1n2[C@@H](CC2CCCCC2)C(=O)Nc2ccc(N(C)CCN(C)C)cc2-1 [6000#39135]	98.1%
CN(C)CCCN(C)c1ccc2c(c1)-c1nc3cc(C(=O)NCCN4CCOCC4)ccc3n1[C@@H](CC1CCCCC1)C(=O)N2 [6000#39255]	95.2%
CCOC(=O)CCNC(=O)c1ccc2c(c1)nc1n2[C@@H](Cc2ccc(Cl)cc2)C(=O)Nc2ccc(N(C)CCN(C)C)cc2-1 [6000#45135]	97.8%
CN(C)CCCN(C)c1ccc2c(c1)-c1nc3cc(C(=O)NCCCN4CCCC4=O)ccc3n1[C@@H](Cc1ccc(Cl)cc1)C(=O)N2 [6000#46455]	96.8%
COCCN(CCOC)C(=O)c1ccc2c(c1)nc1n2[C@@H](Cc2ccc(Cl)cc2)C(=O)Nc2ccc(N(C)CCN(C)C)cc2-1 [6000#46895]	96.1%
CC(=O)NCCNC(=O)c1ccc2c(c1)nc1n2[C@@H](Cc2ccc(Cl)cc2)C(=O)Nc2ccc(NCCCN3CCCCC3C)cc2-1 (stereo partly shown) [6000#47222]	95.7%

SMILES	inhibition at 170 µg/mL
CSCCCNC(=O)c1ccc2c(c1)nc1n2[C@@H](Cc2ccc(Cl)cc2)C(=O)Nc2ccc(N(C)CCCN(C)C)cc2-1 [6000#47335]	96.2%
CN(C)CCN(C)c1ccc2c(c1)-c1nc3cc(C(F)(F)F)ccc3n1[C@@H](Cc1c[nH]c3ccccc13)C(=O)N2 [6000#52815]	98.8%
CN(C)CCN(C)c1ccc2c(c1)-c1nc3cc(Br)ccc3n1[C@@H](CCCCNC(=O)C(F)(F)F)C(=O)N2 [6000#56655]	97.8%
CN(C)CCCNc1ccc2c(c1)-c1nc3cc(Br)ccc3n1C(CCCCNC(=O)C(F)(F)F)C(=O)N2 (stereo not shown) [6000#56687]	96.8%
CN(C)CCCN(C)c1ccc2c(c1)-c1nc3cc(Br)ccc3n1C(CCCCNC(=O)C(F)(F)F)C(=O)N2 (stereo not shown) [6000#56695]	95.8%
CCN(CC)CCN(C)c1ccc2c(c1)-c1nc3cc(C(F)(F)F)ccc3n1C(CCCCNC(=O)C(F)(F)F)C(=O)N2 (stereo not shown) [6000#56919]	95.8%
CN(C)CCCNc1ccc2c(c1)-c1nc3cc(C(F)(F)F)ccc3n1C(CCCCNC(=O)C(F)(F)F)C(=O)N2 (stereo not shown) [6000#56927]	96.3%
CN(C)CCCN(C)c1ccc2c(c1)-c1nc3cc(C(F)(F)F)ccc3n1C(CCCCNC(=O)C(F)(F)F)C(=O)N2 (stereo not shown) [6000#56935]	95.8%
CCN1CCCC1CNc1ccc2c(c1)-c1nc3cc(C(F)(F)F)ccc3n1C(CCCCNC(=O)C(F)(F)F)C(=O)N2 (stereo not shown) [6000#56957]	97.4%
CCOC(=O)C1CCN(c2ccc3c(c2)-c2nc4ccc(Cl)cc4n2C(CCCCNC(=O)C(F)(F)F)C(=O)N3)CC1 (stereo not shown) [6000#57085]	96.7%
CCOCCNc1ccc2c(c1)-c1nc3cc(C(=O)Nc4nccs4)ccc3n1C(CCCNC(=N)N)C(=O)N2 (stereo not shown) [6000#57258]	96.9%
CCCCNc1ccc2c(c1)-c1nc3cc(C(=O)NCCCCCC(=O)OC)ccc3n1C(CCCNC(=N)N)C(=O)N2 (stereo not shown) [6000#57343]	100%
CCOC(=O)CCNC(=O)c1ccc2c(c1)nc1n2C(CCCNC(=N)N)C(=O)Nc2ccc(NC3CCN(Cc4ccccc4)C3)cc2-1 (stereo not shown) [6000#57389]	97.3%
CCOC(=O)CCNC(=O)c1ccc2c(c1)nc1n2C(CCCNC(=N)N)C(=O)Nc2ccc(Sc3ccccn3)cc2-1 (stereo not shown) [6000#57425]	97.8%
CCCCNc1ccc2c(c1)-c1nc3cc(C(=O)N4CCCC4)ccc3n1C(CCCNC(=N)N)C(=O)N2 (stereo not shown) [6000#57503]	97.4%
CCN(CC)c1ccc2c(c1)-c1nc3cc(C(=O)N4CCCC4)ccc3n1C(CCCNC(=N)N)C(=O)N2 (stereo not shown) [6000#57519]	100%
CCN(CC)c1ccc2c(c1)-c1nc3cc(C(=O)N(C)C4CCN(C)CC4)ccc3n1C(CCCNC(=N)N)C(=O)N2 (stereo not shown) [6000#57999]	95.1%
CCCCNc1ccc2c(c1)-c1nc3cc(C(=O)NCCO)ccc3n1C(CCCNC(=N)N)C(=O)N2 (stereo not shown) [6000#58223]	97%
CCOC(=O)C1CCCN(C(=O)c2ccc3c(c2)nc2n3C(CCCNC(=N)N)C(=O)Nc3ccc(N(C)CCc4ccccn4)cc3-2)C1 (stereo not shown) [6000#58414]	98%
CCOC(=O)C1CCCN(C(=O)c2ccc3c(c2)nc2n3C(CCCNC(=N)N)C(=O)Nc3ccc(N4CCCC(C(=O)OCC)C4)cc3-2)C1 (stereo not shown) [6000#58437]	100%

SMILES	inhibition at 170 µg/mL
CCOC(=O)C1CCN(c2ccc3c(c2)-c2nc4cc(C(=O)N5CCCC(C(=O)OCC)C5)ccc4n2C(CCCNC(=N)N)C(=O)N3)CC1 (stereo not shown) [6000#58445]	97%
CCOC(=O)C1CCCN(C(=O)c2ccc3c(c2)nc2n3C(CCCNC(=N)N)C(=O)Nc3ccc(N4CCSCC4)cc3-2)C1 (stereo not shown) [6000#58475]	99.1%
COCCN(CCOC)C(=O)c1ccc2c(c1)nc1n2C(CCCNC(=N)N)C(=O)Nc2ccc(N(C)Cc3ccccc3)cc2-1 (stereo not shown) [6000#59152]	97.2%
CCOC(=O)C1CCCN(c2ccc3c(c2)-c2nc4cc(C(=O)N5CCC(NC(C)=O)C5)ccc4n2C(CCCNC(=N)N)C(=O)N3)C1 (stereo not shown) [6000#59317]	96.6%
CCOC(=O)C1CCN(c2ccc3c(c2)-c2nc4cc(C(=O)N5CCC(NC(C)=O)C5)ccc4n2C(CCCNC(=N)N)C(=O)N3)CC1 (stereo not shown) [6000#59325]	95.2%
CC(=O)NC1CCN(C(=O)c2ccc3c(c2)nc2n3C(CCCNC(=N)N)C(=O)Nc3ccc(N4CCSCC4)cc3-2)C1 (stereo not shown) [6000#59355]	97.2%
CCOC(=O)N1CCN(C(=O)c2ccc3c(c2)nc2n3C(CCCNC(=N)N)C(=O)Nc3ccc(NCCCSC)cc3-2)CC1 (stereo not shown) [6000#59387]	97.8%
CCOC(=O)N1CCN(C(=O)c2ccc3c(c2)nc2n3C(CCCNC(=N)N)C(=O)Nc3ccc(Sc4nc(C)cc(C)n4)cc3-2)CC1 (stereo not shown) [6000#59393]	96.1%
CCOC(=O)N1CCN(C(=O)c2ccc3c(c2)nc2n3C(CCCNC(=N)N)C(=O)Nc3ccc(Sc4ccccn4)cc3-2)CC1 (stereo not shown) [6000#59425]	96.8%
CCOC(=O)N1CCN(C(=O)c2ccc3c(c2)nc2n3C(CCCNC(=N)N)C(=O)Nc3ccc(N4CCSCC4)cc3-2)CC1 (stereo not shown) [6000#59435]	96.1%
CCOC(=O)N1CCN(C(=O)c2ccc3c(c2)nc2n3C(CCCNC(=N)N)C(=O)Nc3ccc(N(CC)CC)cc3-2)CC1 (stereo not shown) [6000#59439]	96.4%
CC(=O)NCCNC(=O)c1ccc2c(c1)nc1n2C(CCCNC(=N)N)C(=O)Nc2ccc(NCc3ccc(F)cc3)cc2-1 (stereo not shown) [6000#59512]	98.7%
CN(C)CCN(C)c1ccc2c(c1)-c1nc3cc(Br)ccc3n1C(CCCNC(=N)N)C(=O)N2 (stereo not shown) [6000#60735]	99.9%
CC(=O)NCCNc1ccc2c(c1)-c1nc3cc(Br)ccc3n1C(CCCNC(=N)N)C(=O)N2 (stereo not shown) [6000#60738]	96.5%
CC(=O)N1CCN(c2ccc3c(c2)-c2nc4cc(Br)ccc4n2C(CCCNC(=N)N)C(=O)N3)CC1 (stereo not shown) [6000#60754]	97.3%
CCOCCNc1ccc2c(c1)-c1nc3cc(Br)ccc3n1C(CCCNC(=N)N)C(=O)N2 (stereo not shown) [6000#60778]	98.8%
N=C(N)NCCCC1C(=O)Nc2ccc(N3CCOCC3)cc2-c2nc3cc(Br)ccc3n21 (stereo not shown) [6000#60794]	97.3%
CCOC(=O)N1CCN(c2ccc3c(c2)-c2nc4ccccc4n2C(CCCNC(=N)N)C(=O)N3)CC1 (stereo not shown) [6000#60826]	95%

— US6515122B1, “Tetracyclic benzimidazole derivatives and combinatorial libraries thereof” (Lion Bioscience AG, priority 1999, dated 2003)
